Tests used:
OIR mouse model = assay: Oxygen-induced retinopathy (OIR) mouse model; format: in vivo
Description: In this model, 7-day-old mouse pups with partially developed retinal vasculature were subjected to hyperoxia (75% oxygen) for 5 days, which stops retinal vessel growth and causes significant vaso-obliteration. On postnatal day 12, the pups were returned to room air, and by postnatal day 17, a florid compensatory retinal neovascularization occurred. This model of pathological neovascularization has been widely used as a substitute for proliferative diabetic retinopathy (DR).
To examine the effects of the aromatic-cationic peptides of the invention on prevention of OIR, OIR was induced in mouse pups and the mice were simultaneously administered an aromatic-cationic peptide (e.g., Phe-D-Arg-Phe-Lys-NH2 or D-Arg-2′,6′-Dmt-Lys-Phe-NH2) for approximately 6 weeks. The results are shown in FIG. 26 and indicate that treatment with D-Arg-2′,6′-Dmt-Lys-Phe-NH2 prevented the compensatory retinal neovascularization. As such, the aromatic-cationic peptides of the invention are useful in methods of preventing proliferative diabetic retinopathy in mammalian subjects.

[1] = system: STZ and HFD/STZ diabetic rats; assay: Retinal microvessel changes in diabetic SD rats; format: in vivo, Sprague-Dawley rat; conditions: STZ or HFD/STZ rats
Procedure: A rat model of diabetes was established by combination of 6-week HFD and low dose of STZ (30 mg/kg) injection or a single high dose of STZ (65 mg/kg) in SD rats. See generally, K. Srinivasan, B. Viswanad, Lydia Asrat, C. L. Kaul and P. Ramarao, Combination of high-fat diet-fed and low-dose streptozotocin-treated rat: A model for type 2 diabetes and pharmacological screening, Pharmacological Research, 52(4): 313-320, 2005. Rats of the same batch fed with normal chow (NRC) were used as a control.
The effect of the aromatic-cationic peptides on retinal microvessels in the SD rat model was investigated (FIGS. 11-12). Administration of D-Arg-2′,6′-Dmt-Lys-Phe-NH2 reduced retinal microvasular changes observed in STZ or HFD/STZ rats.

[2] = system: human retinal epithelial cells (HREC); assay: Intracellular ROS in HRECs exposed to 30 mM glucose (dihydroethidium); format: cell-based; conditions: 100 nM, 24 h and 48 h
Procedure: FIGS. 2A-2F is a series of micrographs showing co-treatment with D-Arg-2′,6′-Dmt-Lys-Phe-NH2 (SS-31) reduced intracellular reactive oxygen species (ROS) in HRECs exposed to 30 mM glucose for 24 h and 48 h. Intracellular ROS was measured using dihydroethidium. 2A, 2D normal culture media; 2B, 2E 30 mM glucose; and 2C, 2F 30 mM glucose+D-Arg-2′,6′-Dmt-Lys-Phe-NH2 (SS-31) (100 nM) at 24 and 48 h, respectively.
The survival of HRECs in high glucose co-treated with D-Arg-2′,6′-Dmt-Lys-Phe-NH2 was tested at 24 h and 48 h.

iHTM cells = assay: MMP decline, sustained oxidative injury by H2O2, iHTM cells; format: cell-based, human; conditions: then 200 μM H2O2 24 h
Procedure: The effects of D-Arg-2′,6′-Dmt-Lys-Phe-NH2 on sustained oxidative injury of GTM and HTM cells was examined. Cells were pre-treated with 10^−6, 10^−7, 10^−8M of D-Arg-2′,6′-Dmt-Lys-Phe-NH2 for 1 h, and then incubated with 200 μM H2O2 for 24 h to investigate the protective effect of D-Arg-2′,6′-Dmt-Lys-Phe-NH2 in sustained oxidative stress.

[3] = system: trabecular meshwork cells from POAG patients (GTM); assay: LDH cytotoxicity assay, GTM cells; format: cell-based, human
Description: In this Example, the effects of the aromatic-cationic peptides of the invention were compared between trabecular meshwork cells from POAG patients (GTM) and trabecular meshwork cells from non-diseased individuals (HTM). Methods useful in the studies of the present invention have been described. See generally, He Y, Ge J, Tombran-Tink J., Mitochondrial defects and dysfunction in calcium regulation in glaucomatous trabecular meshwork cells. Invest Ophthalmol Vis Sci. 2008, 49(11):4912-22; He Y, Leung K W, Zhang Y H, Duan S, Zhong X F, Jiang R Z, Peng Z, Tombran-Tink J, Ge J. Mitochondrial complex I defect induces ROS release and degeneration in trabecular meshwork cells of POAG patients: protection by antioxidants. Invest Ophthalmol Vis Sci. 2008, 49(4):1447-58. […]
To assess whether D-Arg-2′,6′-Dmt-Lys-Phe-NH2 had cytotoxic effects of HTM or GTM cells, various concentrations of D-Arg-2′,6′-Dmt-Lys-Phe-NH2 were administered to cells and the cytotoxicity was measured using an LDH assay. […] The assay quantitatively measures the stable, cytosolic, lactate dehydrogenase (LDH) enzyme, which is released from damaged cells. The released LDH is measured with a coupled enzymatic reaction that results in the conversion of a tetrazolium salt (iodonitrotetrazolium (INT)) into a red color formazan by diaphorase. […] The LDH activity is determined as NADH oxidation or INT reduction over a defined time period.

[4] = system: human retinal epithelial cells (HREC); assay: Mitochondrial membrane potential of high-glucose HRECs (JC-1, flow cytometry); format: cell-based; conditions: 100 nM co-treatment with high glucose; 24 or 48 hours
Procedure: Assessment of D-Arg-2′,6′-Dmt-Lys-Phe-NH2 as a protectant against mitochondrial potential loss of HRECs treated with high-glucose was examined. To determine if a mitochondrial-mediated pathway was important in the protective effect of D-Arg-2′,6′-Dmt-Lys-Phe-NH2 against high glucose-induced cell death, ΔΨm was measured by flow cytometry. After treating the HRECs with high-glucose without D-Arg-2′,6′-Dmt-Lys-Phe-NH2 for 24 or 48 hours, a rapid loss of mitochondrial membrane potential was detected by JC-1 fluorescent probe as indicated by a significant decrease in the ratio of red to green fluorescence observed in the high glucose group.

D-Arg-2′,6′-Dmt-Lys-Phe-NH2
avascular area (OIR mouse model; OIR mouse model (FIG. 26)): reduced
compensatory retinal neovascularization (OIR mouse model; OIR mouse pups): prevented
retinal microvascular changes [1]: reduced
production of ROS [2]: reduced
MMP Decline (iHTM cells; 0.01 μM pre-treatment 1 h): −58.24 ± 2.62 %
MMP Decline (iHTM cells; 0.1 μM pre-treatment 1 h): −53.24 ± 2.52 %
MMP Decline (iHTM cells; 1 μM pre-treatment 1 h): −44.99 ± 2.19 %
cytotoxicity ([3]; 10^−4M): no cytotoxicity
viability (LDH assay) ([3]; various concentrations): does not affect the viability
Δψm (ratio of red to green JC-1 fluorescence) [4]: remained virtually unchanged

Reference: patent US20180296630A1, “METHODS AND COMPOSITIONS FOR PREVENTING OR TREATING OPHTHALMIC CONDITIONS” (Stealth BioTherapeutics Corp, priority 2012, published 2018)
